Test results from publication PMC8113231 (Nature Communications, 2021).
pEC50: −log10 of the molar value. Where a SMILES comes first, the peptide text is derived from it. Bridges are numbered along the chain shown (N, C = ends).

Tests used:
[1] = system: A/duck/Hokkaido/Vac-3/07 (H5N1/Vac-3); assay: microbe, parasite or virus in culture; type: cell-based, influenza A virus; settings: Influenza A virus, H5N1, MDCK; 48–72 h; read-out: EC50, plaque reduction, H5N1/Vac-3
[2] = system: A/whooper swan/Mongolia/3/05 (H5N1/Mongolia; clade 2.2); assay: microbe, parasite or virus in culture; type: cell-based; settings: Influenza A virus, H5N1, MDCK; 48–72 h; read-out: EC50, plaque reduction, H5N1/Mongolia (clade 2.2)
[3] = system: A/whooper swan/Hokkaido/1/08 (H5N1/Hokkaido; clade 2.3.2.1); assay: microbe, parasite or virus in culture; type: cell-based; settings: Influenza A virus, H5N1, MDCK; 48–72 h; read-out: EC50, plaque reduction, H5N1/Hokkaido (clade 2.3.2.1)
[4] = system: A/Puerto Rico/8/34 (H1N1/PR8); assay: microbe, parasite or virus in culture; type: cell-based; settings: Influenza A virus, MDCK; 48–72 h; read-out: EC50, plaque reduction, H1N1/PR8
[5] = system: A/Tokyo/2619/09 (H1N1/Tokyo2619); assay: microbe, parasite or virus in culture; type: cell-based; settings: Influenza A virus, H1N1, MDCK; 48–72 h; read-out: EC50, plaque reduction, H1N1/Tokyo2619
[6] = system: A/Narita/1/09 (H1N1/Narita); assay: microbe, parasite or virus in culture; type: cell-based; settings: Influenza A virus, H1N1, MDCK; 48–72 h; read-out: EC50, plaque reduction, H1N1/Narita
A/Adachi/2/57 (H2N2) = assay: microbe, parasite or virus in culture; type: cell-based; settings: Influenza A virus, H2N2, MDCK; 48–72 h; read-out: EC50, plaque reduction, H2N2/Adachi
[7] = system: A/whooper swan/Hokkaido/1/08 (H5N1); set-up: species or system BALB/c mice; settings: mouse, in vivo
H5N1/Vac-3 = type: cell-based, influenza A virus
H1N1/Tokyo2619 = type: cell-based, influenza A virus

| SMILES | pEC50 [1] | pEC50 [2] | pEC50 [3] | pEC50 [4] | pEC50 [5] | pEC50 [6] | pEC50 (A/Adachi/2/57 (H2N2)) | Survival outcome, delayed administration [7] | H5N1/Vac-3 virus-mediated RBC membrane fusion (H5N1/Vac-3) | H1N1/Tokyo2619 virus-mediated RBC membrane fusion (H1N1/Tokyo2619) |
| --- | --- | --- | --- | --- | --- | --- | --- | --- | --- | --- |
| CC(=O)N[C@H]1[C@H]([C@H](O)[C@H](O)CO)OC(C(=O)O)=C[C@@H]1N=C(N)N [zanamivir] | 7.38 | > 8.00 | > 8.00 | 6.94 | < 6.00 | < 6.00 | 7.22 | all mice in the zanamivir-treated group died |  |  |
| CC[C@H](C)[C@@H]1NC(=O)[C@H](C)NC(=O)[C@H](Cc2c[nH]c3ccccc23)NC(=O)[C@H](CCC(=O)O)NC(=O)[C@H](CC(C)C)NC(=O)[C@@H]2CCCN2C(=O)[C@H](Cc2ccccc2)NC(=O)[C@H](CCCCN)NC(=O)[C@H](Cc2c[nH]c3ccccc23)NC(=O)[C@H](CC(N)=O)NC(=O)[C@H](C(C)C)NC(=O)CSC[C@@H](C(=O)NCC(N)=O)NC(=O)[C@H](Cc2ccc(O)cc2)NC(=O)[C@H](CCCNC(=N)N)NC1=O [iHA-12sf, reference compound] ({CH2CO}-VNWKFPLEWAIRYCG-NH2; thioether N-14) |  |  |  |  |  |  |  |  | did not reduce RBC membrane fusion | did not reduce RBC membrane fusion |
